This is an account of results in patent US8883827B2, “Azole derivatives as WTN pathway inhibitors” (Oslo University Hospital HF, priority 2009, dated 2014).

Molecules are shown by their SMILES.

A word on the IC50: it is the point on the concentration scale where inhibition reaches its midpoint. Higher therefore signals lower potency. The term GI50 denotes the concentration that inhibits growth by half. Low readings indicate more potent growth inhibition, high ones less potent growth inhibition.

Assay type in all cases: cell-based
The test system of assay [1] is canonical Wnt signaling. The experiment in a line: ST-Luc (SuperTOPFlash) Luciferase assay in HEK293 cells, 30% Wnt3a-CM. The conditions noted are these: Homo sapiens, HEK293; 10 μM compound, 30% Wnt3a-CM, 24 h; relative to DMSO control. The procedure:
Inhibition of Wnt signaling by compound No. 1 was quantified in vitro using a Luciferase assay in HEK293 cells transiently transfected with SuperTOPFlash plasmid (ST-Luc) (Veeman M T et al., Curr. Biol. 13: 680-685, 2003) at concentrations from 0.1-10 μM. HEK293 cells were purchased from ATCC (American Type Culture Collection) and maintained according to suppliers recommendations.
Transfection was performed using 80000 HEK293 cells seeded in 48-well plates coated with poly-L lysine. After 24 hours, 0.25 μg total plasmid DNA (0.23 μg SuperTOPFlash+0.02 μg pRL-TK (Renilla)—Promega) and 0.75 μl FuGENE6 (Roche) was combined in a total volume in 25 μl Opti-MEM® (Invitrogen) as described by the manufacturer (Roche). The transfection mixture was added to the plated cells and media were changed after 24 hours.
The Luciferase assay was performed by incubating transfected cells for 24 hours with various concentrations of compound No. 1 in 30% Wnt3a-CM (Wnt3a containing conditioned medium from L Wnt3a cells was harvested as described by ATCC). All treated reporter cells were finally lysed and the firefly luciferase and Renilla activities were measured on a 20/20n Luminometer (Turner BioSystems) as described in the Dual-Glo™ Luciferase Assay System Technical Manual (Promega).
HEK293 cells were transfected, grown and assayed as described in Example 22. 24 hours after seeding, the cells were incubated for an additional 24 hours with 10 μM concentrations of compounds in 30% Wnt3a-CM.
The percent activities shown in Table 3 are calculated relative to DMSO as a control. Some values shown are averages of multiple measurements. Compound XAV939 (Novartis; Huang et al., Nature (2009), 461, pp. 614-20) which is used as a positive control, has an activity of 7%.

Assay [2] relates to canonical Wnt signaling. In words: IC50 in STF/REN HEK293 cells, 50% Wnt3a-CM. The conditions noted are these: Homo sapiens; STF/REN HEK293, 50% Wnt3a-CM, 24 h. The procedure:
IC50 values were calculated using STF/REN HEK293 cells prepared essentially according to Example 22. Briefly, HEK293 cells (80,000 cells per well) were seeded in 48-well plates coated with poly-L lysine. 24 hours after seeding, the cells were incubated for an additional 24 hours with various compound concentrations in 50% Wnt3a-CM. After compound exposure, the cells were lysed and the firefly luciferase and Renilla activities were measured on a 20/20n Luminometer (Turner BioSystems) as described in the Dual-Glo™ Luciferase Assay System Technical Manual (Promega).
(§1) XLfit (idbs) was used to determine the IC50 and GI50 values in inhibition experiments. The data were fit to the following formulae:
IC50: Langmuir Binding Isotherm: fit=((A+(B*x))+(((C−B)*(1−exp((−1*D)*x)))/D)) res=(y−fit)

The subject of assay [3] is SW480 cells. In words: Growth inhibition (GI50) MTS assay. The note with it: Homo sapiens, 72 h. How it is done:
Growth inhibition curves were prepared using SW480 cells, prepared essentially according to Example 23. SW480 cells (3000 cells per well) were seeded on 96 well plates (eight replicates per treatment). 24 hours later and daily thereafter, cell culture media (including 10% FBS) was mixed with various compound concentrations or with 0.1% DMSO vehicle and then added to the wells. Sixteen wells of seeded control cells, defining incubation time zero (to =24 hour after cell seeding), were incubated with […] substrate in 100 μl of phenol-free D-MEM (Invitrogen) for 2 hours, as described in the CellTiter 96® AQueous Non-Radioactive Cell Proliferation Assay protocol (MTS, Promega). The A490 was recorded. The treatment samples were likewise measured after 72 hours. The following formula was used to determine the single well relative A490 sample values: ((Sample A490−Average A490t0)*100)/(Average A490t720.1% DMSO control−Average A490t0)
as §1
GI50: Eadie-Hofstee Model: fit=(A+((B*x)/((C*(D+1))+x))) inv=(((y−A)*(C*(D+1)))/((A+B)−y)) res=(y−fit)

For assay [4], the system named is COLO205. In words: MTS cell proliferation assay, Table 6. The note with it: 10 μM, 72 h, relative to DMSO control. From the text: (§2) Control cell lines used were HeLa cells (cell growth not controlled by canonical Wnt signalling) and colorectal cancer cell lines LS174T and HCT116 (with mutant β-catenin N-terminal phosphorylation sites). Target cell lines used were colorectal cancer cell lines WiDr, LoVo, HCT-8, HCT-15, COL0205, DLD-1, HT-29, SW620, SW1463, SW480 which all carry a mutant APC gene. Target cells, along with L Wnt3a-expressing cells and HEK293 cells, were purchased from ATCC (American Type Culture Collection) and maintained according to the supplier's recommendations. Wnt3a containing conditioned media (Wnt3a-CM) from L Wnt3a expressing cells was harvested as described by ATCC.
(§3) For the experiment giving the results shown in Table 6, cells were exposed to cell culture medium (including 10% FBS) containing 10 μM of the compound to be tested 24 hours after seeding (3000 cells on 96-well plates). Medium was changed daily. After 72 hours, an MTS assay (CellTiter 96® AQueous Non-Radioactive Cell Proliferation Assay—Promega) was carried out according to the standard procedure. 0.1% DMSO was used as a control.
(§4) The quantity of reduced MTS product (as measured by the absorbance at 490 nm) is directly proportional to the number of living cells in the culture and thus allows a direct comparison of cell proliferation in each case. DMSO was used as a control. The following formula was used to determine single well relative A490 sample values: ((Sample A490−Average A490t0)*100)/(Average A490t720.1% DMSO control−Average A490t0)
(§5) Data shown are A490-percentage values relative to the DMSO control, calculated as described above, and represent averages from 2 to 4 independent experiments (except SW1463 cells treated with IWR-1 which reports only a single experiment). Compounds IWR-1 and XAV939 are known Wnt pathway inhibitors.

For assay [5], the system named is DLD-1. The experiment in a line: MTS cell proliferation assay, Table 6. The note with it: 10 μM, 72 h, relative to DMSO control.
Excerpt: as §2, §3, §4, §5
(Tetrazolium assays rely on reduction of a dye to a coloured formazan, in cell work by metabolically active cells.)

Assay [6] deals with HCT-15. In words: MTS cell proliferation assay, Table 6. The note with it: 10 μM, 72 h, relative to DMSO control.
Excerpt: as §2, §3, §4, §5

Assay [7] has as its system HCT-8. The experiment in a line: MTS cell proliferation assay, Table 6. The conditions noted are these: 10 μM, 72 h, relative to DMSO control.
Excerpt: as §2, §3, §4, §5

The test system of assay [8] is HCT116. In words: MTS cell proliferation assay, Table 6. The conditions noted are these: HCT116 (control); 10 μM, 72 h; relative to DMSO control.
Excerpt: as §2, §3, §4, §5

Assay [9] deals with HT-29. In words: MTS cell proliferation assay, Table 6. The conditions noted are these: 10 μM, 72 h, relative to DMSO control.
Excerpt: as §2, §3, §4, §5

For assay [10], the system named is HeLa cells. The experiment in a line: MTS cell proliferation assay, Table 6. The note with it: HeLa (control); 10 μM, 72 h; relative to DMSO control.
Excerpt: as §2, §3, §4, §5

Assay [11] deals with LS174T. In words: MTS cell proliferation assay, Table 6. The note with it: LS174T (control); 10 μM, 72 h; relative to DMSO control.
Excerpt: as §2, §3, §4, §5

For assay [12], the system named is LoVo. In words: MTS cell proliferation assay, Table 6. The conditions noted are these: 10 μM, 72 h, relative to DMSO control.
Excerpt: as §2, §3, §4, §5

The subject of assay [13] is SW1463. In words: MTS cell proliferation assay, Table 6. The note with it: 10 μM, 72 h, relative to DMSO control.
Excerpt: as §2, §3, §4, §5

The test system of assay [14] is SW480. The experiment in a line: MTS cell proliferation assay, Table 6. The note with it: 10 μM, 72 h, relative to DMSO control.
Excerpt: as §2, §3, §4, §5

Assay [15] has as its system SW620. The experiment in a line: MTS cell proliferation assay, Table 6. The note with it: 10 μM, 72 h, relative to DMSO control.
Excerpt: as §2, §3, §4, §5

Assay [16] deals with WiDr. The experiment in a line: MTS cell proliferation assay, Table 6. The note with it: 10 μM, 72 h, relative to DMSO control.
Excerpt: as §2, §3, §4, §5

The test system of assay [17] is APC mutant cell lines. The experiment in a line: MTS cell proliferation assay, Table 6, mean. The note with it: 10 μM, 72 h; for Ratio of means: APC mutant cell lines versus control cell lines; for Mean proliferation (APC mutant cell lines): ten APC mutant colorectal lines.
Excerpt: as §2, §3, §4, §5

Assay [18] relates to control cell lines. In words: MTS cell proliferation assay, Table 6, mean. The note with it: HeLa, HCT116, LS174T; 10 μM, 72 h.
Excerpt: as §2, §3, §4, §5

`Cc1ccc(-c2noc(CSc3nnc(-c4ccnc(O)c4)n3-c3ccccc3C)n2)cc1` [Compound 46] registered an activity at 10 µM in [1] of 13.3%. In assay [2], this compound returned an IC50 of 0.7 µM. In assay [3], the GI50 turned out to be 9 µM.

Consider `O=C(Nc1cccc2cccnc12)c1ccc(N2C(=O)[C@@H]3[C@H](C2=O)[C@@H]2C=C[C@H]3C2)cc1` [IWR-1, reference compound], for which the “Cell proliferation (%)” value in [4] is 55%; in [5], 97%; in assay [6], 64%; in [7], 70%; in [8], 83%; in assay [9], 33%. Further, the “Cell proliferation (%)” value came out at 77% in assay [10]; 63% in [11]; 73% in assay [12]; 57% in assay [13]; 62% in assay [14]; 48% in assay [15]. Further, the “Cell proliferation (%)” value in assay [16] came out at 61%. Besides, the Ratio of means in [17] was 0.83. Further, in [17], the “Mean proliferation (APC mutant cell lines)” value is recorded as 62%. In addition, the “Mean proliferation (control cell lines)” value in assay [18] is given as 74%.

`Cc1ccc(-c2noc(CSc3nnc(-c4ccncc4)n3-c3cccc(Cl)c3C)n2)cc1` [Compound 10] yielded an activity at 10 µM in [1] of 10.1%. Besides, in [2], it took 3.3 µM to reach half-maximal inhibition (IC50). For the same compound, the GI50 in assay [3] came to 13.5 µM.

In turn, `Cc1ccc(-c2nnc(CSc3nnc(-c4ccncc4)n3-c3ccccc3C)o2)cc1` [Compound 48] had an activity at 10 µM in [1] of 9.9%. In assay [2], this compound had an IC50 of 0.22 µM. This compound also yielded a GI50 in assay [3] of 9 µM.

`COc1ccc(-n2c(SCc3nc(-c4ccc(C)cc4)no3)nnc2-c2ccccc2OC)cc1` [Compound 8] showed an activity at 10 µM in [1] of 28.5%. In addition, in assay [2], the IC50 was found to be 2.1 µM. Besides, the GI50 in assay [3] was found to be 10.5 µM.

Compound `Cc1ccc(-c2noc(CSc3nnc(-c4ccncc4)n3-c3cccc(C)c3C)n2)cc1` [Compound 44] registered an activity at 10 µM in assay [1] of 10.4%. Moreover, it took 0.57 µM to reach half-maximal inhibition in assay [2] (IC50). In assay [3], this compound displayed a GI50 of 22 µM.

On to `COc1ccc(-n2c(SCc3nnc(-c4ccccc4)o3)nnc2-c2ccncc2)cc1` [Compound 11], for which the activity at 10 µM in assay [1] worked out at 9.3%. In assay [2], this compound came in with an IC50 of 1.5 µM. In [3], this compound showed a GI50 of over 25 µM.

In the case of `Cc1ccccc1-n1c(SCc2nc(-c3ccc(Cl)cc3)no2)nnc1-c1ccncc1` [Compound 41], the activity at 10 µM in assay [1] was 9.4%. Besides, in assay [2], it took 0.47 µM to reach half-maximal inhibition (IC50). For the same compound, the GI50 in assay [3] is under 5 µM.

With `Oc1nc(-c2ccc(C(F)(F)F)cc2)nc2c1CSCC2` [XAV939, reference compound], the activity at 10 µM in assay [1] came out at 7%. This compound also returned an IC50 in assay [2] of under 0.1 µM. The “Cell proliferation (%)” value in assay [4] is reported as 116%; in assay [5], 102%; in assay [6] it was 90%; in assay [7] it was 105%; in assay [8], 109%; in [9], 100%. In addition, the “Cell proliferation (%)” value in assay [10] was 92%; in assay [11], 97%; in assay [12], 129%; in assay [13], 64%; in assay [14], 103%; in assay [15], 102%. Also, the “Cell proliferation (%)” value in assay [16] is 94%. Also, the Ratio of means in [17] is recorded as 1.01. Moreover, the “Mean proliferation (APC mutant cell lines)” value in assay [17] is 101%. In addition, the “Mean proliferation (control cell lines)” value in assay [18] turned out to be 99%.

As for `COc1ccc(-n2c(SCC(C)(C)c3nc(-c4ccc(C)cc4)no3)nnc2-c2ccncc2)cc1` [Compound 18], the activity at 10 µM in assay [1] stood at 32.3%. In [2], half-maximal inhibition (IC50) was put at 5.9 µM. Besides, the GI50 in [3] was over 25 µM.
